What all share (format): in vivo
For one experiment, the system named is Leptosphaeria nodorum. Kind of experiment: Leptosphaeria nodorum test (wheat)/protective. The following applies: Parastagonospora nodorum, wheat plants, protective spray, evaluation 7-9 days after inoculation, read-out: Efficacy (%). As for the experimental part: Leptosphaeria nodorum Test (Wheat)/Protective
(§1) Solvent: 49 parts by weight of N,N-dimethylformamide
(§2) Emulsifier: 1 part by weight of alkylaryl polyglycol ether
To produce a suitable preparation of active compound, 1 part by weight of active compound is mixed with the stated amounts of solvent and emulsifier, and the concentrate is diluted with water to the desired concentration. To test for protective activity, young wheat plants are sprayed with the preparation of active compound at the stated application rate. 1 day after the treatment, the plants are inoculated with an aqueous spore suspension of Leptosphaeria nodorum and then remain at 100% relative atmospheric humidity and 22° C. for 48 h. The plants are then placed in a greenhouse at 90% relative atmospheric humidity and a temperature of 22° C. Evaluation is carried out 7-9 days after the inoculation. 0% means an efficacy which corresponds to that of the control, whereas an efficacy of 100% means that no infection is observed. In this test, the following compounds according to the invention show, at an active compound concentration of 500 ppm, an efficacy of 70% or more: […]

Experiment [1] deals with Blumeria graminis fsp. hordei. Kind of experiment: Blumeria graminis test (barley)/protective. The following applies: 168 h, protective spray, evaluation 7 days after inoculation, read-out: Efficacy (%). How it is done:
Blumeria graminis Test (Barley)/Protective
(§3) Solvent: 49 parts by weight of N,N-dimethylacetamide
as §2
To produce a suitable preparation of active compound, 1 part by weight of active compound is mixed with the stated amounts of solvent and emulsifier, and the concentrate is diluted with water to the desired concentration. To test for protective activity, young plants are sprayed with the preparation of active compound at the stated application rate. After the spray coating has dried on, the plants are dusted with spores of Blumeria graminis fsp. hordei. The plants are placed in a greenhouse at a temperature of about 18° C. and a relative air humidity of about 80% to promote the development of mildew pustules. Evaluation follows 7 days after the inoculation. 0% means an efficacy which corresponds to that of the control, whereas an efficacy of 100% means that no infection is observed.
(§4) In this test, the following compounds according to the invention show, at an active compound concentration of 500 ppm, an efficacy of 70% or more: […]

The test system of another experiment is Uromyces appendiculatus. Kind of experiment: Uromyces test (bean)/protective. Conditions: 240 h, protective spray, evaluation 10 days after inoculation, read-out: Efficacy (%). As for the experimental part: Uromyces Test (Bean)/Protective
Solvents: 24.5 parts by weight of acetone
• 24.5 parts by weight of dimethylacetamide Emulsifier: 1 part by weight of alkylaryl polyglycol ether
To produce a suitable preparation of active compound, 1 part by weight of active compound is mixed with the stated amounts of solvent and emulsifier, and the concentrate is diluted with water to the desired concentration. To test for protective activity, young plants are sprayed with the preparation of active compound at the stated application rate. After the spray coating has dried on, the plants are inoculated with an aqueous spore suspension of the bean rust pathogen Uromyces appendiculatus and then remain in an incubation cabin at about 20° C. and 100% relative atmospheric humidity for 1 day. The plants are then placed in the greenhouse at about 21° C. and a relative atmospheric humidity of about 90%. Evaluation follows 10 days after the inoculation. 0% means an efficacy which corresponds to that of the control, whereas an efficacy of 100% means that no infection is observed.
In this test, the following compounds according to the invention show, at an active compound concentration of 100 ppm, an efficacy of 70% or more: […]

For the next experiment, the system named is Alternaria solani. Kind of experiment: Alternaria test (tomato)/protective. The following applies: 168 h, tomato plants, protective spray, evaluation 7 days after inoculation, read-out: Efficacy (%). How it is done: Alternaria Test (Tomato)/Protective
as §1, §2
To produce a suitable preparation of active compound, 1 part by weight of active compound is mixed with the stated amounts of solvent and emulsifier, and the concentrate is diluted with water to the desired concentration. To test for protective activity, young tomato plants are sprayed with the preparation of active compound at the stated application rate. 1 day after the treatment, the plants are inoculated with a spore suspension of Alternaria solani and then remain at 100% rd. humidity and 22° C. for 24 h. The plants then remain at 96% rd. atmospheric humidity and a temperature of 20° C. Evaluation is carried out 7 days after the inoculation. 0% means an efficacy which corresponds to that of the control, whereas an efficacy of 100% means that no infection is observed.
as §4

Another experiment relates to Septoria tritici. Kind of experiment: Septoria tritici test (wheat)/protective. Conditions: Zymoseptoria tritici, 504 h, protective spray, evaluation 21 days after inoculation, read-out: Efficacy (%). As for the experimental part: Septoria tritici Test (Wheat)/Protective
as §3, §2
To produce a suitable preparation of active compound, 1 part by weight of active compound is mixed with the stated amounts of solvent and emulsifier, and the concentrate is diluted with water to the desired concentration. To test for protective activity, young plants are sprayed with the preparation of active compound at the stated application rate. After the spray coating has dried on, the plants are sprayed with a spore suspension of Septoria tritici. The plants remain in an incubation cabin at 20° C. and 100% relative atmospheric humidity for 48 hours. Thereafter, the plants are placed under a translucent hood at 15° C. and 100% relative air humidity for a further 60 hours. The plants are placed in a greenhouse at a temperature of about 15° C. and a relative atmospheric humidity of about 80%. Evaluation follows 21 days after the inoculation. 0% means an efficacy which corresponds to that of the control, whereas an efficacy of 100% means that no infection is observed.
as §4

The next experiment deals with Phakopsora pachyrhizi. Kind of experiment: Phakopsora pachyrhizi test (soya bean)/protective. Conditions: protective spray, 100 ppm, evaluation 11 days after inoculation. How it is done:
Phakopsora pachyrhizi Test (Soya Bean)/Protective
Solvent: 28.5 parts by weight of acetone
Emulsifier: 1.5 part by weight of polyoxyethylene alkylphenyl ether
To produce a suitable preparation of active compound, 1 part by weight of active compound is mixed with the stated amounts of solvent and emulsifier, and the concentrate is diluted with water to the desired concentration. To test for protective activity, young plants are sprayed with the preparation of active compound at the stated application rate. 1 day after spraying, the plants are inoculated with an aqueous spore suspension of the soya bean rust pathogen (Phakopsora pachyrhizi). The plants are placed in a greenhouse at a temperature of about 20° C. and a relative atmospheric humidity of about 80%. Evaluation follows 11 days after the inoculation. 0% means an efficacy which corresponds to that of the control, whereas an efficacy of 100% means that no infection is observed.
In this test, the following compounds according to the invention show, at an active compound concentration of 100 ppm, an efficacy of 80% or more: […]

Here are results for four molecules from patent US9241487B2, “Pyrimidine derivatives and use thereof as pesticides” (BAYER INTELLECTUAL PROPERTY GMBH, priority 2010, dated 2016).

`CC(C)C(O)(COc1ccc(OC(F)(F)F)cc1)c1cncnc1` (centres unmarked) [Compound 2]: the pest or weed control at 500 ppm amounted to 100% with Leptosphaeria nodorum, 100% in experiment [1], 100% in the experiment with Alternaria solani and 93% in the experiment with Septoria tritici. For the same molecule, the pest or weed control at 100 ppm in the experiment with Uromyces appendiculatus was 100%.

For the molecule `CC(C)(C)C(O)(COc1ccc(OC(F)(F)F)cc1)c1cncnc1` (centres unmarked) [Compound 12], the pest or weed control at 500 ppm in the experiment with Leptosphaeria nodorum turned out to be 95%; in experiment [1] it was 100%; with Alternaria solani it was 100%; in the experiment with Septoria tritici, 100%. Moreover, the pest or weed control at 100 ppm with Uromyces appendiculatus is 100%. The “Efficacy (%)” value in the experiment with Phakopsora pachyrhizi was 98%.

As for `CC(C)(C)C(O)(COc1ccc(SC(F)(F)F)cc1)c1cncnc1` (centres unmarked) [Compound 17], the pest or weed control at 500 ppm in the experiment with Leptosphaeria nodorum is 94%; in experiment [1], 100%; with Alternaria solani, 94%; in the experiment on Septoria tritici, 100%. Besides, in the experiment on Uromyces appendiculatus, the pest or weed control at 100 ppm is 100%. In addition, the “Efficacy (%)” value with Phakopsora pachyrhizi turned out to be 97%.

Turning to `CC1(C(O)(COc2ccc(OC(F)(F)F)cc2)c2cncnc2)CC1` (centres unmarked) [Compound 18], the pest or weed control at 500 ppm in the experiment with Leptosphaeria nodorum came to 95%; in experiment [1] it was 100%; in the experiment with Alternaria solani it was 90%; with Septoria tritici it was 100%. The pest or weed control at 100 ppm with Uromyces appendiculatus worked out at 100%. Besides, the “Efficacy (%)” value in the experiment with Phakopsora pachyrhizi was determined as 98%.
